Molecular target: T1, mu opiate receptor (MOR) (Rattus norvegicus, UniProt P33535)
T1 construct: from tissue; host or cells: striatum (membrane preparation)
Assay type: biochemical
Details: for Concentration of FLNA-Binding Compound as Agonist 0.1 μM / Concentration of FLNA-Binding Compound as Agonist 1 μM / Concentration of FLNA-Binding Compound as Agonist 1 μM + BFNA: [35S]GTPγS binding to Gαo in striatal membranes; for Concentration of FLNA-Binding Compound as Agonist 0.1 μM: compound 0.1 μM; for Concentration of FLNA-Binding Compound as Agonist 1 μM: compound 1 μM; for Concentration of FLNA-Binding Compound as Agonist 1 μM + BFNA: compound 1 μM plus 1 μM β-funaltrexamine (MOR antagonist); for [35S]GTPγS binding, FLNA-Binding Compound as Agonist at 0.1 μM: 0.1 μM compound; for [35S]GTPγS binding, FLNA-Binding Compound as Agonist at 0.1 μM / [35S]GTPγS binding, FLNA-Binding Compound as Agonist at 1 μM: striatal membranes; for [35S]GTPγS binding, FLNA-Binding Compound as Agonist at 0.1 μM / [35S]GTPγS binding, FLNA-Binding Compound as Agonist at 1 μM + BFNA / [35S]GTPγS binding, FLNA-Binding Compound as Agonist at 1 μM: Series C-2; for [35S]GTPγS binding, FLNA-Binding Compound as Agonist at 1 μM + BFNA: 1 μM compound + 1 μM β-FNA (selective MOR antagonist); for [35S]GTPγS binding, FLNA-Binding Compound as Agonist at 1 μM: 1 μM compound

T1 sequence (P33535 whole entry): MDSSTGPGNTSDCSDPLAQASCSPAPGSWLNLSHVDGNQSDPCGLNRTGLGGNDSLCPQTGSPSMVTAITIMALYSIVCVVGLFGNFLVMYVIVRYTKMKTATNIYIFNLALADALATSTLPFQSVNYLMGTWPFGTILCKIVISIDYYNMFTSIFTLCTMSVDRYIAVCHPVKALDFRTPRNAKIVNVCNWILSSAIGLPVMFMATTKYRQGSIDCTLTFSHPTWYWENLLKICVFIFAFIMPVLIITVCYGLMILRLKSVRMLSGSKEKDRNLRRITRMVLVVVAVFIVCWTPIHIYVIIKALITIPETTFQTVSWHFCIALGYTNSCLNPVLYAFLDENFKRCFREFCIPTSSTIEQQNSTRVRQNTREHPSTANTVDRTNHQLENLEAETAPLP

| Structure (SMILES) | % DAMGO (0.1 μM) [%] | % DAMGO (1 μM) [%] | % DAMGO + BFNA [%] | Concentration of FLNA-Binding Compound as Agonist 0.1 μM [%] | Concentration of FLNA-Binding Compound as Agonist 1 μM [%] | Concentration of FLNA-Binding Compound as Agonist 1 μM + BFNA [%] | [35S]GTPγS binding, FLNA-Binding Compound as Agonist at 0.1 μM [%] | [35S]GTPγS binding, FLNA-Binding Compound as Agonist at 1 μM + BFNA [%] | [35S]GTPγS binding, FLNA-Binding Compound as Agonist at 1 μM [%] |
| --- | --- | --- | --- | --- | --- | --- | --- | --- | --- |
| COc1c2c(cc3c1OCO3)CCN(CC(O)COC1CC(C)CCC1C(C)C)C2 (stereo not drawn) [Compound A0061] | 70.7 | 85.5 | 26.8 | 110.3 | 197.1 | 10.7 | – | – | – |
| COc1ccc(CC(=O)CC2c3c(cc4c(c3OC)OCO4)CC[N+]2(C)C)c(OC)c1 (stereo not drawn) [Compound B0029] | 89.4 | 77.0 | 40.1 | 171.9 | 210.3 | 17.6 | – | – | – |
| CS(=O)(=O)c1ccc(S(=O)(=O)N2CCOC23CCN(CC2CC2)CC3)cc1 [Compound C0126M] | 108.5 | 119.3 | 228.4 | – | – | – | 181.8 | 108.5 | 265.3 |
| COc1ccc(C(=O)CC2c3c(cc4c(c3OC)OCO4)CC[N+]2(C)C)cc1C (stereo not drawn) [Compound B0021] | 75.9 | 104.7 | 123.6 | 126.9 | 256.4 | 42.9 | – | – | – |
| OC(COc1cccc(F)c1)CN1CCc2ccccc2C1 (stereo not drawn) [Compound A0055] | 53.2 | 78.4 | 102.4 | 89.8 | 195.2 | 33.5 | – | – | – |
| COc1ccccc1CC(=O)CC1c2c(cc3c(c2OC)OCO3)CC[N+]1(C)C (stereo not drawn) [Compound 5009] | 66.9 | 83.2 | 181.5 | 128.5 | 270.4 | 87.5 | – | – | – |
| COc1ccc(NC(=O)N2CCC3(CC2)OCCN3S(=O)(=O)c2ccc(OC)cc2)cc1 [Compound C0041] | 110.1 | 111.7 | 575.3 | 186.1 | 244.4 | 95.5 | – | – | – |
| Nc1ccc(C(=O)N2CCC3(CC2)OCCN3S(=O)(=O)c2ccc(N)cc2)cc1 [Compound C0023] | 89.5 | 87.6 | 44.5 | 153.2 | 233.7 | 23.2 | – | – | – |
| CC1CCC(C(C)C)C(OCC(O)CN2CCOCC2)C1 (stereo not drawn) [Compound A0004] | 55.2 | 55.6 | 130.9 | 97.4 | 144.2 | 86.0 | – | – | – |
| COc1c2c(cc3c1C(CC(=O)Cc1ccc(C#N)cc1)[N+](C)(C)CC3)OCO2 (stereo not drawn) [Compound B0012] | 97.8 | 79.4 | 278.5 | 167.4 | 212.0 | 145.1 | – | – | – |
| O=C1CN(Cc2ccccc2)C2(CCN(S(=O)(=O)c3cc(Cl)c(O)c(Cl)c3)CC2)N1 [Compound C0139M] | 106.2 | 102.2 | 129.8 | 156.1 | 206.6 | 51.0 | – | – | – |
| CC(=O)c1ccc(C(=O)N2CCC3(CC2)OCCN3S(=O)(=O)c2ccc(C(C)=O)cc2)cc1 [Compound C0052] | 74.8 | 69.9 | 97.0 | 108.4 | 162.8 | 42.7 | – | – | – |
| O=S(=O)(c1ccc2ccccc2c1)N1CCC2(CC1)OCCN2S(=O)(=O)c1ccc2ccccc2c1 [Compound C0140M] | 85.8 | 106.5 | 211.2 | 126.1 | 215.4 | 83.0 | – | – | – |
| COc1cc(C(=O)CC2c3c(cc4c(c3OC)OCO4)CC[N+]2(C)C)cc(OC)c1OC (stereo not drawn) [Compound B0037] | 76.5 | 80.4 | 325.8 | 119.8 | 186.0 | 106.2 | – | – | – |
| CNc1ccc(S(=O)(=O)N2CCC3(CC2)OCCN3S(=O)(=O)c2ccc(NC)cc2)cc1 [Compound C0024] | 92.8 | 84.1 | 135.1 | 178.4 | 229.6 | 59.3 | – | – | – |
| O=S(=O)(c1ccc(Br)cc1)N1CCC2(CC1)OCCN2S(=O)(=O)c1ccc(Br)cc1 [Compound C0025] | 122.6 | 117.5 | 182.7 | 235.7 | 320.7 | 80.2 | – | – | – |
| CCN(CC)CC(O)COC1CC(C)CCC1C(C)C (stereo not drawn) [Compound A0032] | 115.6 | 93.4 | 180.0 | 226.9 | 257.8 | 133.0 | – | – | – |
| COc1ccc(CCC(=O)CC2c3c(cc4c(c3OC)OCO4)CC[N+]2(C)C)cc1OC (stereo not drawn) [Compound B0042] | 39.6 | 42.3 | 163.9 | 69.9 | 107.5 | 43.1 | – | – | – |
| CCN1CCC2(CC1)OCCN2S(=O)(=O)c1ccc(C(C)=O)cc1 [Compound C0094M] | 100.2 | 119.9 | 334.2 | – | – | – | 172.5 | 115.3 | 263.5 |
| CCCCN1CCC2(CC1)OCCN2S(=O)(=O)c1ccc(C(C)=O)cc1 [Compound C0101M] | 82.5 | 123.4 | 368.0 | – | – | – | 138.2 | 174.8 | 274.3 |
| COc1cccc(CC(=O)CC2c3c(cc4c(c3OC)OCO4)CC[N+]2(C)C)c1OC (stereo not drawn) [Compound B0038] | 94.2 | 88.7 | 359.2 | 147.5 | 205.5 | 117.1 | – | – | – |
| COc1ccc(CCC(=O)CC2c3c(cc4c(c3OC)OCO4)CC[N+]2(C)C)cc1 (stereo not drawn) [Compound B0016] | 99.2 | 79.9 | 109.4 | 167.7 | 213.6 | 72.2 | – | – | – |
| COc1c2c(cc3c1C(CC(=O)c1ccc(N4CCOCC4)cc1)[N+](C)(C)CC3)OCO2 (stereo not drawn) [Compound B0004] | 102.8 | 85.8 | 110.8 | 170.3 | 231.7 | 72.0 | – | – | – |
| CC(=O)c1ccc(S(=O)(=O)N2CCC3(CC2)NCC(=O)N3Cc2ccccc2)cc1 [Compound C0082M] | 113.7 | 107.8 | 181.1 | 228.1 | 338.4 | 97.6 | – | – | – |
| O=S(=O)(c1ccc(Br)cc1C(F)(F)F)N1CCC2(CC1)OCCN2S(=O)(=O)c1ccc(Br)cc1C(F)(F)F [Compound C0068] | 53.4 | 83.8 | 307.8 | 107.2 | 263.1 | 165.9 | – | – | – |
| CC1CCC(C)C(OCC(O)CN2CC(C)OC(C)C2)C1 (stereo not drawn) [Compound A0022] | 90.0 | 80.9 | 53.7 | 154.1 | 216.0 | 28.0 | – | – | – |
| Cc1ccc(C(C)C)c(OCC(O)CN2CC(C)OC(C)C2)c1 (stereo not drawn) [Compound A0028] | 81.3 | 73.8 | 443.7 | 143.6 | 187.7 | 116.7 | – | – | – |

From patent US10760052B2, “Method of inhibiting tau phosphorylation” (priority 2012, dated 2020)
